The results in this text go back to PubChem BioAssay (NCI).

Some test systems named below: A549 NSCLC; ACHN renal; EKVX NSCLC; KM12 colon; MCF7 breast; NCI-H226 lung; NCI-H23 lung; NCI-H522 lung; SW-620 colon; U251 CNS.
Holding throughout (experiment): NCI tumour cell line growth inhibition, 48 h

“And” between values parts separate entries of the source, which are not always exact repeats. Equal values may be shown once.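 Five concentrations, 48 hours, 96-well plates. The concentration for 50% growth inhibition is given as GI50. At the TGI there is no net growth.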

Regarding `COc1ccc2c(c1)N(CCO)C1=C(C(=O)OC1)C2c1cccc(Br)c1` (stereo unspecified), the GI50 in the test on A549 NSCLC was 113 nM; in the test on ACHN renal it was 82.4 nM; with EKVX NSCLC, 694 nM; in the test with KM12 colon, 48.9 nM; with MCF7 breast, 39.1 nM; in the test on NCI-H226 lung, 175 nM. The GI50 is 156 nM in the test with NCI-H23 lung, 22.6 nM in the test with NCI-H522 lung, 46 nM in the test with SW-620 colon and 53.4 nM in the test on U251 CNS. In addition, the TGI in the test with A549 NSCLC was 19600 nM; in the test on ACHN renal it was above 100000 nM; in the test with EKVX NSCLC it was above 100000 nM; in the test with KM12 colon, 5050 nM; with MCF7 breast it was above 100000 nM; in the test with NCI-H226 lung, 2560 nM. For the same compound, the TGI in the test on NCI-H23 lung was above 100000 nM; in the test on NCI-H522 lung, 69.3 nM; with SW-620 colon it was above 100000 nM; in the test with U251 CNS, 15900 nM.

As for `COC(=O)C12OCC34C(CC5C(C)=CC(=O)C(O)C5(C)C3C(O)C1O)OC(=O)C(OC(=O)CC(C)C)C24` (stereo unspecified), the GI50 was < 39.9 nM and 50 nM in the test on A549 NSCLC; 19.3 nM in the test on ACHN renal; 61.2 nM in the test with EKVX NSCLC; 51.1 nM and 50 nM with KM12 colon; 0.602 nM in the test on MCF7 breast; below 34.5 nM in the test on NCI-H226 lung. The GI50 in the test with NCI-H23 lung was < 46 nM and 50 nM; with SW-620 colon, 42 nM and 50 nM; in the test on U251 CNS, below 34.2 nM. The TGI in the test on ACHN renal was 300 nM and 174 nM; in the test with MCF7 breast it was 2.21 nM; in the test with NCI-H522 lung, 1.18 nM.

As for `CNC(=S)N/N=C(/C)CCC/C(C)=N/NC(=S)NC`, the TGI with A549 NSCLC is above 100000 nM; in the test on ACHN renal it was above 100000 nM; in the test on EKVX NSCLC, above 100000 nM; in the test on KM12 colon it was above 100000 nM; in the test with MCF7 breast, 563 nM; in the test on NCI-H226 lung it was above 100000 nM. Further, the TGI in the test on NCI-H23 lung, with NCI-H522 lung, in the test on SW-620 colon and in the test on U251 CNS was above 100000 nM throughout.

As to `COc1ccc2cc(C(=O)/C=C/c3ccccc3OC)ccc2c1`, the GI50 in the test with A549 NSCLC was 4690 nM; in the test on ACHN renal, 2970 nM; in the test with EKVX NSCLC it was 17500 nM; in the test with KM12 colon, 1600 nM; in the test with NCI-H226 lung, 3240 nM; with NCI-H23 lung, 5020 nM. Moreover, the GI50 in the test with NCI-H522 lung is 1930 nM; in the test on SW-620 colon it was 2810 nM; in the test on U251 CNS, 4330 nM. Also, the TGI in the test on A549 NSCLC was 11900 nM; in the test on ACHN renal it was 15600 nM; with EKVX NSCLC, 58500 nM; in the test on KM12 colon, 9510 nM; in the test on MCF7 breast, above 100000 nM; in the test on NCI-H226 lung, 18700 nM. Also, the TGI in the test with NCI-H23 lung was 23300 nM; in the test with NCI-H522 lung, 9670 nM; in the test with SW-620 colon, above 33200 nM; in the test on U251 CNS, 15600 nM.

Consider `O=C(Nc1cccc2ccccc12)c1cc2ccccc2cc1O`, for which the GI50 with A549 NSCLC was 2520 nM; in the test on ACHN renal, 2440 nM; in the test with EKVX NSCLC, 1770 nM; in the test on KM12 colon, 2730 nM; in the test on MCF7 breast it was 1700 nM; in the test on NCI-H226 lung it was 2500 nM. Further, the GI50 was 1900 nM with NCI-H23 lung, 1660 nM in the test with NCI-H522 lung, 2910 nM in the test on SW-620 colon and 1560 nM with U251 CNS. For the same compound, the TGI in the test with A549 NSCLC stood at 8310 nM; in the test on ACHN renal, 7890 nM; with EKVX NSCLC it was 6180 nM; in the test with KM12 colon, 8010 nM; in the test with MCF7 breast, 7710 nM; with NCI-H226 lung, 9420 nM. Besides, the TGI in the test with NCI-H23 lung stood at 8840 nM; in the test with NCI-H522 lung it was 4830 nM; in the test with SW-620 colon, 15000 nM; in the test on U251 CNS it was 4720 nM.

For the compound `Cn1cc(-c2nc(-c3cn(C)c4ncccc34)cs2)c2cc(F)ccc21`, the GI50 in the test on A549 NSCLC is 1740 nM; in the test with ACHN renal, 2960 nM; in the test on EKVX NSCLC, 1930 nM; in the test with KM12 colon it was 610 nM; in the test on MCF7 breast it was 528 nM; in the test with NCI-H226 lung, 2600 nM. For the same compound, the GI50 was 2760 nM in the test on NCI-H23 lung, 367 nM with NCI-H522 lung, 1230 nM with SW-620 colon and 1550 nM in the test on U251 CNS. Further, the TGI in the test on A549 NSCLC is above 100000 nM; in the test on ACHN renal it was above 100000 nM; with EKVX NSCLC, 74300 nM; with KM12 colon, 14600 nM; with MCF7 breast it was 60500 nM; with NCI-H226 lung it was above 100000 nM. Moreover, the TGI was above 100000 nM with NCI-H23 lung, 7570 nM with NCI-H522 lung, above 100000 nM in the test on SW-620 colon and above 100000 nM in the test on U251 CNS.

As for `Cc1ccc(C2CC(c3cccc(Nc4ccncc4)c3)=NN2c2ccc(Cl)cc2)cc1` (stereo unspecified), the GI50 in the test on A549 NSCLC is 1730 nM; with ACHN renal, 1630 nM; with EKVX NSCLC, 1480 nM; with KM12 colon, 1620 nM; in the test with MCF7 breast it was 1800 nM; in the test with NCI-H226 lung, 1870 nM. Moreover, the GI50 was 1770 nM in the test on NCI-H23 lung, 1780 nM in the test with NCI-H522 lung, 1550 nM with SW-620 colon and 1850 nM in the test on U251 CNS. For the same compound, the TGI is 3290 nM in the test with A549 NSCLC; 2990 nM with ACHN renal; 2880 nM in the test with EKVX NSCLC; 2990 nM with KM12 colon; 3860 nM with MCF7 breast; 3760 nM in the test on NCI-H226 lung. The TGI with NCI-H23 lung stood at 3390 nM; with NCI-H522 lung, 3670 nM; in the test on SW-620 colon it was 3040 nM; in the test on U251 CNS it was 3640 nM.

As for `CCNCCNc1cc(C2CCCC2)c(C#N)c2nc3ccccc3n12`, the GI50 was 3590 nM in the test on A549 NSCLC; 1910 nM in the test on ACHN renal; 4730 nM in the test on EKVX NSCLC; 4640 nM in the test on KM12 colon; 2580 nM with MCF7 breast; 3490 nM in the test on NCI-H226 lung. Further, the GI50 is 7420 nM in the test on NCI-H23 lung, 2260 nM in the test on NCI-H522 lung, 2820 nM in the test on SW-620 colon and 2210 nM in the test on U251 CNS. Also, the TGI was found to be 8220 nM with A549 NSCLC; 4000 nM with ACHN renal; 21500 nM in the test with EKVX NSCLC; 16600 nM in the test on KM12 colon; 13700 nM with MCF7 breast; 17500 nM in the test on NCI-H226 lung. Besides, the TGI in the test with NCI-H23 lung was found to be 24300 nM; with NCI-H522 lung it was 5330 nM; with SW-620 colon, 13200 nM; in the test with U251 CNS it was 4270 nM.
